We go through 31 molecules from article PMC11784839, “Monoaminergic neurotransmitters are bimodal effectors of tau aggregation” (Science Advances, 2025).

The target of this assay is tau (Homo sapiens, UniProt P10636). As to the kind of experiment: MCE Phenols Library screening, tau biosensor cell seeding assay (AvZ). The class given is cell-based. The note with it: for Z repl 1 / Z Repl 2: Z score; for Z repl 1 / raw data 1: replicate 1; for Z Repl 2 / raw data 2: replicate 2; for AvZ (average z score of seeding, SDs from the mean level of seeding): 10 μM phenol in cell cultures, AD brain homogenate preincubated 16 hours, two biological replicates, positive = catalyzes seeding, negative = inhibits.

Setting [1] is: average Z score of the two replicates, MCE Phenols Library screen.
Where [2] appears, read: average Z score of the two replicates, tau biosensor seeding, MCE Phenols Library screen.
The mark [3] stands for this setting: average puncta of the two replicates.
Setting [4] is: average Z score of two replicates, Phenols Library screen.

tau, sequence (P10636 623-695 limits assumed): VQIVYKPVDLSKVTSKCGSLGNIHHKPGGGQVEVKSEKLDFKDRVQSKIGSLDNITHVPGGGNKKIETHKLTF

Take `O=c1cc(-c2ccc(O)cc2)oc2c([C@@H]3O[C@H](CO)[C@@H](O[C@@H]4O[C@H](CO)[C@@H](O)[C@H](O)[C@H]4O)[C@H](O)[C@H]3O)c(O)cc(O)c12` [Vitexin-4''-O-glucoside]: the “Z repl 1” value came out at 0.632 and the “Z Repl 2” value is recorded as -0.232. Further, the “av Z” value (average Z score of the two replicates, tau seeding) amounted to 0.2. Under “average of raw data 1 and 2”, this molecule registered an av puncta of 22113. For the setting “puncta”, the “raw data 1” value is 33940.8 and the “raw data 2” value was found to be 10285.2.

Consider `COc1cc(O)c2c(c1)oc(=O)c1c3cc(O)c(O)cc3oc21` [Wedelolactone], for which the “Z repl 1” value is -0.852 and the “Z Repl 2” value is recorded as -1.136. The “av Z” value under setting [1] is -0.994. This molecule also had an av puncta (average of raw data 1 and 2) of 8376. Under “puncta”, the “raw data 1” value came to 16120.2 and the “raw data 2” value stood at 631.756.

Take `COc1c(O)cc(O)c2c(=O)cc(-c3ccccc3)oc12` [Wogonin]: the “Z repl 1” value is 0.851 and the “Z Repl 2” value was determined as 1.113. Moreover, under setting [2], the “av Z” value turned out to be 0.982. Moreover, the av puncta (average of raw data 1 and 2) turned out to be 30607.4. Further, under “puncta”, the “raw data 1” value was found to be 36560.6 and the “raw data 2” value is reported as 24654.2.

Take `COc1c(O[C@@H]2O[C@H](C(=O)O)[C@@H](O)[C@H](O)[C@H]2O)cc(O)c2c(=O)cc(-c3ccccc3)oc12` [Wogonoside]: the “Z repl 1” value is -0.039 and the “Z Repl 2” value is -0.756. In addition, the “av Z” value under setting [1] is recorded as -0.398. For the same molecule, under setting [3], the av puncta stood at 15284.9. In addition, under “raw puncta”, the “raw data 1” value was 25879 and the “raw data 2” value is recorded as 4690.87.

As for `COc1ccc(-c2oc3c(CCC(C)(C)O)c(O)cc(O)c3c(=O)c2O)cc1` [Wushanicaritin], the “Z repl 1” value is on record as -0.889 and the “Z Repl 2” value is -0.335. For the same molecule, the “av Z” value under setting [1] was -0.612. Besides, the av puncta under setting [3] worked out at 12429.8. Also, under “puncta”, the “raw data 1” value worked out at 15671.6 and the “raw data 2” value is listed as 9188.09.

With `COc1cc(O)c(C(C)=O)c(OC)c1` [Xanthoxylin], the “AvZ (average z score of seeding, SDs from the mean level of seeding)” value (from here on “AvZ”) was found to be 0.65; the “Z repl 1” value was 0.422; the “Z Repl 2” value is recorded as 0.877. For the same molecule, under “average of raw data 1 and 2”, the av puncta is 26774.2. In addition, under “puncta”, the “raw data 1” value came out at 31416.6 and the “raw data 2” value turned out to be 22131.8.

In the case of `O=C(O)c1cc(O)c2cccc(O)c2n1` [Xanthurenic acid], the “Z repl 1” value was found to be 0.734 and the “Z Repl 2” value is 1.586. For the same molecule, under setting [2], the “av Z” value was 1.16. This molecule displayed an av puncta (average of raw data 1 and 2) of 32429.6. For the same molecule, for the setting “puncta”, the “raw data 1” value is on record as 35156.1 and the “raw data 2” value is recorded as 29703.1.

As to `C[C@H]1CCCC(=O)CCCCCc2cc(O)cc(O)c2C(=O)O1` [Zearalanone], the “Z repl 1” value was determined as 0.089 and the “Z Repl 2” value was -0.477. The “av Z” value under setting [4] is -0.194. The av puncta (average of raw data 1 and 2) came out at 17549.1. In addition, for the setting “puncta”, the “raw data 1” value is on record as 27422.4 and the “raw data 2” value came to 7675.78.

As to `C[C@H]1CCCC(=O)CCC/C=C/c2cc(O)cc(O)c2C(=O)O1` [Zearalenone], the “Z repl 1” value is on record as -0.335 and the “Z Repl 2” value came out at 0.423. In addition, the “av Z” value under setting [4] is given as 0.044. In addition, the av puncta (average of raw data 1 and 2) is 19802.8. Moreover, under “puncta”, the “raw data 1” value is on record as 22326 and the “raw data 2” value is 17279.6.

As to `CCCCC[C@H](O)CC(=O)CCc1ccc(O)c(OC)c1` [[6]-Gingerol], the “Z repl 1” value stood at 0.385 and the “Z Repl 2” value is listed as 0.874. The molecule further returned an av puncta (average of raw data 1 and 2) of 26534.4. Besides, where the note is “puncta”, the “raw data 1” value was 30973.3 and the “raw data 2” value came out at 22095.4.

Consider `CCCCCCC/C=C/C(=O)CCc1ccc(O)c(OC)c1` [[8]-Shogaol], for which the “AvZ” value is reported as -0.665; the “Z repl 1” value is listed as -0.527; the “Z Repl 2” value is given as -0.802. The molecule also showed an av puncta under setting [3] of 12111.2. Where the note is “puncta”, the “raw data 1” value was 20022.1 and the “raw data 2” value came out at 4200.38.

On to `CCCCCCCCC/C=C/C(=O)CCc1ccc(O)c(OC)c1` [[10]-Shogaol], for which the “Z repl 1” value is listed as -0.951 and the “Z Repl 2” value is on record as -0.064. The av puncta under setting [3] turned out to be 13509. Further, for the setting “puncta”, the “raw data 1” value is on record as 14936.2 and the “raw data 2” value stood at 12081.7.

Take `COc1cc2oc3cc(O)c(OC)c(CC=C(C)C)c3c(=O)c2c(O)c1CC=C(C)C` [beta-Mangostin]: the “Z repl 1” value was -0.244 and the “Z Repl 2” value is listed as -0.19. Under setting [1], the “av Z” value is reported as -0.217. For the same molecule, the av puncta under setting [3] is 17083.5. Further, under “raw puncta”, the “raw data 1” value turned out to be 23425.5 and the “raw data 2” value is recorded as 10741.6.

Regarding `O=C(O)C=Cc1ccc(O)cc1` [p-Coumaric acid], the “AvZ” value is reported as -0.287; the “Z repl 1” value is listed as -0.724; the “Z Repl 2” value came out at 0.15. The av puncta under setting [3] amounted to 16011.2. For the setting “raw puncta”, the “raw data 1” value was 17659.3 and the “raw data 2” value came to 14363.1.

`O=C(O)C(O)c1ccc(O)cc1` (stereo not drawn) [p-Hydroxymandelic acid]: the “AvZ” value worked out at 1.127; the “Z repl 1” value came out at 0.77; the “Z Repl 2” value is on record as 1.484. Under “average of raw data 1 and 2”, the av puncta amounted to 32106.2. Under “puncta”, the “raw data 1” value is reported as 35598.4 and the “raw data 2” value stood at 28613.9.

Take (+)-Usnic acid: the “Z repl 1” value turned out to be 0.232 and the “Z Repl 2” value is reported as -0.478. For the same molecule, the “av Z” value under setting [4] is on record as -0.123. Moreover, for the setting “average of raw data 1 and 2”, the av puncta was 18398.3. Moreover, where the note is “puncta”, the “raw data 1” value is recorded as 29133.2 and the “raw data 2” value was found to be 7663.33.

Alpinetin: the “Z repl 1” value is on record as -0.059 and the “Z Repl 2” value is given as -0.789. The “av Z” value under setting [1] is listed as -0.424. Also, under setting [3], the av puncta is given as 14986.7. In addition, for the setting “raw puncta”, the “raw data 1” value came to 25635 and the “raw data 2” value stood at 4338.39.

With Bavachinin, the “Z repl 1” value was 0.618 and the “Z Repl 2” value is on record as -0.383. Besides, the “av Z” value under setting [4] was found to be 0.117. Besides, for the setting “average of raw data 1 and 2”, the av puncta is 21219.6. For the setting “puncta”, the “raw data 1” value worked out at 33763.9 and the “raw data 2” value worked out at 8675.17.

As for Corylin, the “Z repl 1” value is reported as -0.181 and the “Z Repl 2” value was -0.689. For the same molecule, under setting [1], the “av Z” value was -0.435. Also, the av puncta under setting [3] was found to be 14787.4. For the same molecule, where the note is “raw puncta”, the “raw data 1” value came to 24170.2 and the “raw data 2” value was found to be 5404.62.

On to Echinacoside, for which the “Z repl 1” value turned out to be 0.125 and the “Z Repl 2” value was -0.609. Further, the “av Z” value under setting [1] is recorded as -0.242. Besides, the av puncta under setting [3] came to 17056.9. For the same molecule, for the setting “raw puncta”, the “raw data 1” value is listed as 27847.2 and the “raw data 2” value was 6266.63.

On to Engeletin, for which the “Z repl 1” value is -1.222 and the “Z Repl 2” value is -0.399. Moreover, the “av Z” value under setting [1] was -0.81. Besides, where the note is “average of raw data 1 and 2”, the av puncta is on record as 10092.3. Also, where the note is “puncta”, the “raw data 1” value came to 11684.3 and the “raw data 2” value was 8500.41.

For the molecule Gigantol, the “Z repl 1” value is recorded as -0.874 and the “Z Repl 2” value is recorded as -0.481. Moreover, under setting [1], the “av Z” value is -0.677. Moreover, where the note is “puncta”, the “raw data 1” value came out at 15857.3 and the “raw data 2” value is 7628.39.

Consider Isoliquiritin apioside, for which the “Z repl 1” value is listed as 0.567 and the “Z Repl 2” value is -0.451. Moreover, the “av Z” value under setting [4] was 0.058. The same molecule had an av puncta (average of raw data 1 and 2) of 20550.8. Moreover, where the note is “puncta”, the “raw data 1” value was 33153.4 and the “raw data 2” value is reported as 7948.29.

For the molecule Liquiritin apioside, the “Z repl 1” value is 0.133 and the “Z Repl 2” value is reported as -0.022. For the same molecule, the “av Z” value under setting [4] is given as 0.056. The molecule also gave an av puncta (average of raw data 1 and 2) of 20239.1. For the same molecule, where the note is “puncta”, the “raw data 1” value stood at 27949.8 and the “raw data 2” value is on record as 12528.3.

On to Medicarpin, for which the “Z repl 1” value is -0.987 and the “Z Repl 2” value was -0.112. In addition, the “av Z” value under setting [1] is given as -0.55. The molecule further returned an av puncta under setting [3] of 13032.4. Further, under “puncta”, the “raw data 1” value is recorded as 14494.9 and the “raw data 2” value was 11569.9.

For the molecule Myricitrin, the “Z repl 1” value was -0.619 and the “Z Repl 2” value was -1.178. Also, under setting [1], the “av Z” value is reported as -0.899. Moreover, the av puncta (average of raw data 1 and 2) is listed as 9550.45. Under “puncta”, the “raw data 1” value was found to be 18913 and the “raw data 2” value is 187.899.

As to Neosmitilbin, the “Z repl 1” value is reported as 0.198 and the “Z Repl 2” value is -0.157. The “av Z” value under setting [4] came to 0.021. Further, under “average of raw data 1 and 2”, the av puncta stood at 19907.5. For the setting “puncta”, the “raw data 1” value is listed as 28721.6 and the “raw data 2” value is recorded as 11093.4.

On to Punicalagin, for which the “Z repl 1” value is listed as -2.185 and the “Z Repl 2” value was -1.19. The “av Z” value under setting [1] was -1.687. Where the note is “average of raw data 1 and 2”, the av puncta stood at 87.672. Also, where the note is “puncta”, the “raw data 1” value was found to be 119.783 and the “raw data 2” value turned out to be 55.562.

For the molecule Punicalin, the “Z repl 1” value is -2.134 and the “Z Repl 2” value is -1.192. Further, under setting [1], the “av Z” value is -1.663. Moreover, the av puncta (average of raw data 1 and 2) is 380.043. For the same molecule, where the note is “puncta”, the “raw data 1” value is reported as 725.667 and the “raw data 2” value was found to be 34.42.

For the molecule Rhodiosin, the “Z repl 1” value is reported as -1.331 and the “Z Repl 2” value was -1.146. Moreover, under setting [1], the “av Z” value is -1.239. The same molecule showed an av puncta (average of raw data 1 and 2) of 5448.02. Under “puncta”, the “raw data 1” value came to 10373.6 and the “raw data 2” value was determined as 522.423.

In turn, Theaflavin 3,3'-digallate returned an av puncta (average of raw data 1 and 2) of 323.309. In addition, where the note is “puncta”, the “raw data 1” value worked out at 392.747 and the “raw data 2” value is listed as 253.87.
